These results are taken from patent publication US20070082858A1, “Methods and compositions for the prevention of toxic side effects of aminoglycoside medications” (priority 2004, published 2007).

“Also recorded” adds a separate entry of the source.

One series concerns MDCK cells. In words: GTTR uptake into MDCK cells under TRPV1 agonists/antagonists, cation channel blockers, cations and pH (30-60 seconds, 20° C., FATX fixation, confocal imaging). Particulars: for hydrolyzed TR penetration into the cytoplasm (control for toxicity or increased permeability): highest doses shown: 5×10^−7 M RTX; for GTTR uptake stimulated by TRPV1 agonists/antagonists: AND, SB366791 or I-RTX. An excerpt:
MDCK cells were used as a model system to test regulation of GTTR uptake by conditions known to produce or modify a cation current through the TRPV1 channel. Conditions tested were varying extracellular calcium concentrations, pH, specific agonists, specific antagonists, and the non-specific cation channel blocker Ruthenium Red. In addition, we pre-mixed PIP2 with GTTR to determine whether that anionic phospholipid, known to bind gentamicin, would alter GTTR uptake. All these assays were done at room temperature (20° C.), for 30 or 60 seconds, and using doses of GTTR of 5 to 10 μg/ml, which are far below the typical therapeutic level of <300 μg/ml. Buffers used for treatment were as described for each experiment. Cells were quickly washed to replace culture medium with treatment buffer, treated as indicated, washed again after treatment, fixed immediately with 4% formaldehyde and 0.5% Triton X-100 (FATX), and washed prior to imaging.
Methods: Cells were seeded into 8-well coverglass chambers at 3000 cells/well and grown for 5 days.
Cells were washed three times with the buffer to be used in the particular experiment, treated with GTTR and experimental variable for 30 or 60 seconds at 20° C., precluding endocytosis. Following treatment, cells were rinsed three times with buffer, then fixed and delipidated with 4% formaldehyde plus 0.5% Triton X-100 (FATX) for 45 minutes. Following fixation, cells were rinsed with PBS (Invitrogen, CA) for at least 4-6 times, or until foaming in the suction pipette ceased. In contrast to previous experiments, no FBS was present in the treatment media, allowing for more rapid uptake of the antibiotic-based GTTR.
MDCK cells were washed with Hank's buffered salt solution (HBSS; Invitrogen, CA), then placed into buffers of varying potassium concentrations. HBSS was mixed with equi-osmolar KCl/HBSS to produce the required K^+ concentrations. Cells were treated with 1 μg/mL GTTR for 1 minute, then washed and fixed as described above.
Cells were washed with PBS (Invitrogen, CA), then placed into buffers containing varying concentrations of calcium, obtained by mixing HBSS with equimolar CaCl2, each at pH 7.3. Cells were treated with 5 μg/mL of GTTR for 30 seconds, then washed and fixed as above.
Cells were washed with saline, then treated with 5 μg/mL of GTTR in saline buffers of varying pH for 30 seconds, then washed and fixed as above. Sodium hydroxide and hydrochloric acid were used to alter pH. These experiments were performed in three different saline buffers: (i) PBS (no calcium), (ii) a mixture of […] for a final calcium concentration of 0.32 mM, and (iii) a mixture of three parts PBS to one part HBSS for a final calcium concentration of 0.97 mM.
Cells were washed three times with Ca^++-free saline (0.9% NaCl), then treated with 5 μg/mL GTTR and one of the following for 30 seconds: TRPV1 agonists (resiniferatoxin [RTX]; or anandamide [AND]; Alexis Biochemicals, San Diego, Calif.); or antagonists (iodo-RTX, or SB 366791; Tocris, Ellisville, Mo.). Cells were then washed in saline and fixed as above.
Cells were washed three times with Ca^++-free 0.9% NaCl, then treated with 5 μg/mL GTTR and one of the following for 30 seconds: 100 μM Ruthenium Red, 100 μM Ruthenium Red plus one of the TRPV1 agonists or antagonists described above; or lanthanum (La^+++) at 0.5 or 5 mM.

For series [1], the system named is bullfrog saccular hair cells. In words: GTTR uptake in bullfrog saccular explants with TRPV1 regulators. It counts as cell-based. As to the method: Bullfrogs (Rana catesbeiana) were anesthetized with 0.2% MS-222 and chilled before decapitation. The temporal bones were excised in cold oxygenated HEPES-buffered saline (HBS) containing 110 mM Na+; 2 mM K+; 4 mM Ca2+; 120 mM Cl−; 3 mM D-glucose, and 5 mM HEPES (pH=7.25; 220 mOsmols). Each saccule was isolated and the otolithic membrane removed by proteolytic digestion for 20 minutes in oxygenated 50 μg/ml subtilopeptidase BPN (Sigma) at room temperature. Saccular explants were then incubated in Wolf-Quimby culture medium (containing 1 mM Ca2+; Life Technologies) supplemented with 100 μg/ml ciprofloxacin in a 5% CO2 environment at 25° C. (Steyger et al. 1997; Steyger et al. 1998). Gentamicin-treated explants were incubated in the above culture media, supplemented with 300 μg/ml GT/GTTR.

The next series concerns inner ear explants. The series is described as follows: GTTR uptake in explants of bullfrog and murine inner ears (Example 9). It counts as cell-based. The source says: Deafness and nephrotoxicity are serious consequences of aminoglycoside (AG) therapy. As discussed above, in cultured kidney cells, the non-endocytotic component of fluorescently-labeled gentamicin (GTTR) uptake was regulated by TRPV1 channel agonists and antagonists (pH, Ca^++, RTX). This example discusses the influence of these modulators on GTTR uptake in explants of bullfrog and murine inner ears.

The test system of a further series is murine cochlear explants. In words: GTTR uptake in murine cochlear explants with RTX. The note with it: level of OHC nuclei. It counts as cell-based.
For series [2] the following is noted: cited from earlier work.

On to `CCCCC/C=C\C/C=C\C/C=C\C/C=C\CCCC(=O)NCCO` [AND, anandamide], for which the GTTR uptake result in the series on MDCK cells (AND 10^−4 M, calcium-free saline pH 7.3) is on record as “little, or no, increase over controls; also recorded: little or no increase over controls”; with MDCK cells (AND 10^−5 M, calcium-free saline pH 7.3 (Example 1: greater extent than 10^−6 M)) it was “increased, although not to the level seen with RTX”; with MDCK cells (AND 10^−6 M, calcium-free saline pH 7.3), “increased, although not to the level seen with RTX”.
With `[Gd+3]` [Gd^+++, Gadolinium], the GTTR uptake entry in the series on MDCK cells (0.5, 5, or 50 mM Gd^+++ in HBSS pH 7.3, 30 seconds) is “serially decreased”.
In the case of `C=C(C)[C@]12C[C@@H](C)[C@@]34O[C@](Cc5ccccc5)(O[C@@H]1[C@@H]3C=C(COC(=O)Cc1cc(I)c(O)c(OC)c1)C[C@]1(O)C(=O)C(C)=C[C@@H]41)O2` [I-RTX], the GTTR uptake result in the series with MDCK cells (10^−5 M I-RTX with 0.16 or 2.0 mM added calcium, pH 7.0) was “still caused increased GTTR uptake”; in the series with MDCK cells (10^−5 M I-RTX, saline without added calcium, pH 7.0, 1 μg/mL GTTR 30 seconds), “increased GTTR uptake”. Further, the GTTR fluorescence result with MDCK cells (I-RTX 10^−5 M, calcium-free saline pH 7.3) was “well over the upper limit of the available 0 to 255 gray scale”. The “hydrolyzed TR penetration into the cytoplasm (control for toxicity or increased permeability)” value in the series with MDCK cells (10^−5 M I-RTX) is given as “Neither I-RTX or RTX induced TR penetration into the cytoplasm”. In the series with MDCK cells (iodo-RTX dose series 10^−7 to 10^−5 M, calcium-free saline pH 7.3, listed as 1-RTX), the “GTTR uptake, effect compared with SB366791” value is reported as “dramatic; also recorded: more dramatic”. Moreover, the “GTTR uptake in saccular hair cells” value in series [1] (iodo-RTX) is “significantly enhanced by iodo-RTX”.
As to `[Cl-].[K+]` [K^+, KCl], the GTTR uptake result in the series with inner ear explants (potassium depolarization of explants) is “decreased GTTR uptake”; in the series with MDCK cells (K^+ increased from 10 mM to 140 mM vs 5.8 mM, HBSS pH 7.3, 1 minute) it was “clear and considerable decrease in GTTR uptake”.
For the compound `N.N.N.N.N.N.N.N.N.N.N.N.N.N.[Cl-].[Cl-].[Cl-].[Cl-].[Cl-].[Cl-].[O-2].[O-2].[Ru+3].[Ru+3].[Ru+4]` [RR, Ruthenium Red], the GTTR uptake entry with MDCK cells (10 mM RR alone (Example 1)) and in the series on MDCK cells (10^−5 M RR alone (Example 11)) was “took up less GTTR than controls” each time. Moreover, the “GTTR uptake stimulated by TRPV1 agonists/antagonists” value with MDCK cells (10 mM RR plus RTX, AND effect not completely blocked (Example 1)) is “blocked GTTR increases stimulated by RTX, AND, SB366791, and I-RTX”; in the series on MDCK cells (10^−5 M RR plus RTX, AND effect not completely blocked (Example 11)) it was “blocked GTTR increases stimulated by RTX, AND, SB366791, and I-RTX”. The “GTTR uptake in saccular hair cells” value in series [1] (Ruthenium Red) and in series [1] (Ruthenium Red in explants co-treated with iodo-RTX) was “significantly reduced by Ruthenium Red” each time.
`C=C(C)[C@]12C[C@@H](C)[C@@]34O[C@](Cc5ccccc5)(O[C@@H]1[C@@H]3C=C(COC(=O)Cc1ccc(O)c(OC)c1)C[C@]1(O)C(=O)C(C)=C[C@@H]41)O2` [RTX, resiniferatoxin]: the GTTR uptake result in the series on inner ear explants (RTX at 0.16 mM Ca^++) is reported as “enhanced GTTR uptake”; in the series with inner ear explants (RTX at physiological Ca^++ levels), “reduced GTTR uptake”; in the series on MDCK cells (5×10^−9 M RTX with 0.16 or 2.0 mM added calcium, pH 7.0) it was “reduced GTTR uptake compared to controls at the same calcium levels”; in the series with MDCK cells (5×10^−9 M RTX, saline without added calcium, pH 7.0, 1 μg/mL GTTR 30 seconds), “increased GTTR uptake”; in the series with MDCK cells (RTX 5×10^−7 M, calcium-free saline pH 7.3, 5 μg/mL GTTR 30 seconds), “little or no change over control”; in the series on MDCK cells (RTX 5×10^−8 M, calcium-free saline pH 7.3, 5 μg/mL GTTR 30 seconds) it was “increased, but to a lesser extent”. In addition, the GTTR uptake result in the series with MDCK cells (RTX 5×10^−9 M, calcium-free saline pH 7.3, 5 μg/mL GTTR 30 seconds) is given as “significantly increased”; in the series on MDCK cells (RTX 10^−6 M, calcium-free saline pH 7.3), “little or no change over control”; with MDCK cells (RTX 10^−7 M, calcium-free saline pH 7.3), “increased to a lesser extent”; with MDCK cells (RTX 10^−8 M, calcium-free saline pH 7.3) it was “significantly increased”; with MDCK cells (RTX with calcium concentrations as low as 0.08 mM), “inhibited GTTR uptake”; with MDCK cells (combination of 2 mM Ca^++ and 5×10^−9 RTX), “greatly reduced GTTR uptake”. Further, the “GTTR uptake in the organ of Corti” value in the series with murine cochlear explants (RTX plus Ca++) is “reduced further by RTX plus Ca++”; in the series with murine cochlear explants (RTX), “reduced by RTX”. Besides, the “hydrolyzed TR penetration into the cytoplasm (control for toxicity or increased permeability)” value in the series with MDCK cells (10^−5 M I-RTX) was “Neither I-RTX or RTX induced TR penetration into the cytoplasm”. Further, the “GTTR uptake in saccular hair cells” value in series [1] (RTX and Ca++ co-treatment) is “reduced by co-treatment with RTX, and Ca++”; in series [1] (RTX co-administered with GTTR), “significantly reduced by RTX”.
For `COc1cccc(NC(=O)/C=C/c2ccc(Cl)cc2)c1` [SB366791], in the series with MDCK cells (SB366791 10^−7 M to 10^−5 M, calcium-free saline pH 7.3), the GTTR uptake result is listed as “increased GTTR uptake significantly; also recorded: serially increased GTTR uptake”.
Regarding `CC(C)[C@@H]1NC(=O)[C@H](C)OC(=O)[C@@H](C(C)C)NC(=O)[C@@H](C(C)C)OC(=O)[C@H](C(C)C)NC(=O)[C@H](C)OC(=O)[C@@H](C(C)C)NC(=O)[C@@H](C(C)C)OC(=O)[C@H](C(C)C)NC(=O)[C@H](C)OC(=O)[C@@H](C(C)C)NC(=O)[C@@H](C(C)C)OC1=O` [Valinomycin], the GTTR uptake result with MDCK cells (10 μg/mL valinomycin in HBSS pH 7.3, 5 μg/mL GTTR 30 seconds) is “decreased the uptake of GTTR compared to control cells”.
Consider `[Ca+2].[Cl-].[Cl-]` [calcium, calcium chloride], for which the GTTR uptake entry with inner ear explants (0.16 mM Ca^++ compared to 0.0 mM Ca^++) is on record as “greater GTTR uptake”; in the series with MDCK cells (0.16 mM Ca^++ vs no calcium added or 2.0 mM, pH 7.0, 1 μg/mL GTTR), “higher”; with MDCK cells (0.16 mM calcium vs no calcium added, saline pH 7.3), “increased”; in the series on MDCK cells (calcium concentrations above 0.16 mM, saline pH 7.3), “GTTR uptake decreased”; with MDCK cells (calcium levels higher than 1.8 mM) it was “almost completely blocking uptake”; in the series on MDCK cells (physiological calcium levels (1.8 mM)), “inhibitory”.
Turning to `[H]/N=C(/N)N[C@H]1[C@H](O)[C@@H](O)[C@H](O[C@@H]2O[C@@H](C)[C@](O)(C=O)[C@H]2O[C@@H]2O[C@@H](CO)[C@H](O)[C@@H](O)[C@@H]2NC)[C@@H](N/C(N)=N\[H])[C@@H]1O` [streptomycin], the “incidence of vestibular impairment” value in series [2] (1 gram per day) is listed as 25%. Moreover, in series [2] (2 grams daily for 60 to 120 days), the “patients displaying some vestibular impairment” value is approximately 75%.
